The values below come from BindingDB's records for patent US20260034094 (Kojin Therapeutics, 2026).

Structures are written as SMILES.

The assay concerns the target T1, Glutamate--cysteine ligase catalytic subunit (Homo sapiens, UniProt P48506).
T1 sequence (P48506 whole entry): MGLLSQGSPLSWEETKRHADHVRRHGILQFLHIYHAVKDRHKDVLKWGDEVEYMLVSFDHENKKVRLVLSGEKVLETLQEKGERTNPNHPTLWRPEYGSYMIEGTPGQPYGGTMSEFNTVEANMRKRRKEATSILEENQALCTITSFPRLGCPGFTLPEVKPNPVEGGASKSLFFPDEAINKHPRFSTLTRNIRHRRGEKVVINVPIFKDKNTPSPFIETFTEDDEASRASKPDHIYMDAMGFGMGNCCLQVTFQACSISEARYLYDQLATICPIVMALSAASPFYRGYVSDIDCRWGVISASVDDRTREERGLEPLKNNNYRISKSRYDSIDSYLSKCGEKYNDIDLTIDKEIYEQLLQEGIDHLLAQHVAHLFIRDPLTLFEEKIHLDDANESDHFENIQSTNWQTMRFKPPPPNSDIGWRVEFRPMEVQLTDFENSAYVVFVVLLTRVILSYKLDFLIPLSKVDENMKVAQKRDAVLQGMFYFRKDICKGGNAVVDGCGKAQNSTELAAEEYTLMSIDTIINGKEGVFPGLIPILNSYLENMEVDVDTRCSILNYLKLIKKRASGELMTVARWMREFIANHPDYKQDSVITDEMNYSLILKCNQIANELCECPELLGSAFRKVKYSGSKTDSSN
Description: GCL Enzyme Profiling Assay. How it is done:
Compound in pure DMSO was stamped in assay plates (Greiner black 384-well) or appropriate containers using a D300e digital dispenser (TECAN) and the final DMSO concentration was normalized to 1%. A 5 mL, or in the present case, 5 μL mixture of human recombinant GCL (final concentration: 5 nM) and ATP (final concentration: 0.6 mM) was added and the solution was incubated at room temperature (22° C.) for 1 h. […] The reaction was stopped after 1 h or in the present case, 2 h by addition of 5 mL, or in the present case, 5 μL ADP GLO Reagent (Promega). The resulting solution was incubated for 2 h at room temperature. This was then followed by addition of 5 mL, or in the present case, 5 μL ADP GLO Detection. After incubation at room temperature for 30 min, the plates were read on a plate reader (PheraStar) using a luminescence protocol to quantify the GCL enzyme activity from each reaction solution.
Regarding `Cc1cccc(-c2cccc(C(CCS(=N)(=O)CC[C@H](N)C(=O)O)C(F)(F)F)c2)c1` (some centres not stated) [US20260034094, Compound 286], the IC50 was < 20 µM.

For `N=S(=O)(CCC(c1cccc(-c2cccc(F)c2)c1)C(F)(F)F)CC[C@H](N)C(=O)O` (some centres not stated) [US20260034094, Compound 287], the IC50 was < 20 µM.

In the case of `N=S(=O)(CCC(c1cccc(-c2ccc(Cl)cc2Cl)c1)C(F)(F)F)CC[C@H](N)C(=O)O` (some centres not stated) [US20260034094, Compound 288], the IC50 was < 20 µM.

Regarding `Cc1ccc(-c2cccc(C(CCS(=N)(=O)CC[C@H](N)C(=O)O)C(F)(F)F)c2)cc1F` (some centres not stated) [US20260034094, Compound 290], the IC50 was < 20 µM.

Turning to `N=S(=O)(CCC(c1ccc(S(=O)(=O)Cc2ccccc2)cc1)C(F)(F)F)CC[C@H](N)C(=O)O` (some centres not stated) [US20260034094, Compound 291], the IC50 is < 20 µM.

Regarding `N=S(=O)(CCC(c1cccc2ccccc12)C(F)(F)F)CC[C@H](N)C(=O)O` (some centres not stated) [US20260034094, Compound 311], the IC50 is < 20 µM.

Take `N=S(=O)(CCC(c1ccccn1)C(F)(F)F)CC[C@H](N)C(=O)O` (some centres not stated) [US20260034094, Compound 313]: the 50% inhibitory concentration (IC50) is < 20 µM.

Consider `N=S(=O)(CCC(c1ccc(-c2ccccc2)cc1Cl)C(F)(F)F)CC[C@H](N)C(=O)O` (some centres not stated) [US20260034094, Compound 315], for which the IC50 is < 20 µM.

With `N=S(=O)(CCC(c1ccc(Oc2ccccc2)cc1)C(F)(F)F)CC[C@H](N)C(=O)O` (some centres not stated) [US20260034094, Compound 316], the IC50 was < 20 µM.

For `N=S(=O)(CCC(c1ccc(-c2ccc(Cl)cc2Cl)cn1)C(F)(F)F)CC[C@H](N)C(=O)O` (some centres not stated) [US20260034094, Compound 317], the IC50 was < 20 µM.

Regarding `N=S(=O)(CCC(c1ccc(Oc2ccc(Cl)cc2Cl)cc1)C(F)(F)F)CC[C@H](N)C(=O)O` (some centres not stated) [US20260034094, Compound 318], the IC50 was < 20 µM.

Take `N=S(=O)(CCC(CO)C(F)(F)F)CC[C@H](N)C(=O)O` (some centres not stated) [US20260034094, Compound 320]: the IC50 is < 20 µM.

With `N=S(=O)(CC[C@H](N)C(=O)O)CCC(O)(c1ccn(-c2ccc(Cl)cc2Cl)n1)C(F)(F)F` (some centres not stated) [US20260034094, Compound 336], the IC50 is < 20 µM.

As for `N=S(=O)(CC[C@H](N)C(=O)O)CCC(O)(c1cc(-c2ccc(Cl)cc2Cl)cs1)C(F)(F)F` (some centres not stated) [US20260034094, Compound 337], the IC50 is < 20 µM.

Take `N=S(=O)(CC[C@H](N)C(=O)O)CCC(O)(c1ccc(OC2CCCCC2)cc1)C(F)(F)F` (some centres not stated) [US20260034094, Compound 339]: the IC50 is < 20 µM.

Regarding `N=S(=O)(CC[C@H](N)C(=O)O)CCC(O)([C@H]1CC[C@H](c2ccc(Cl)cc2Cl)CC1)C(F)(F)F` (some centres not stated) [US20260034094, Compound 340], the IC50 was < 20 µM.

For `N=S(=O)(CC[C@H](N)C(=O)O)CCC(O)([C@H]1CC[C@@H](c2ccc(Cl)cc2Cl)CC1)C(F)(F)F` (some centres not stated) [US20260034094, Compound 341], the IC50 is < 20 µM.

As for `N=S(=O)(CC[C@H](N)C(=O)O)CCC(O)(c1ccc(Oc2ccc(Cl)cc2Cl)cc1)C(F)(F)F` (some centres not stated) [US20260034094, Compound 342], the IC50 was < 20 µM.

For `N=S(=O)(CC[C@H](N)C(=O)O)CCC(O)(c1cnc(-c2ccc(Cl)cc2Cl)nc1)C(F)(F)F` (some centres not stated) [US20260034094, Compound 366], the IC50 was < 20 µM.

As for `N=S(=O)(CC[C@H](N)C(=O)O)CCC(O)(c1cnc(-c2ccc(Cl)cc2Cl)cn1)C(F)(F)F` (some centres not stated) [US20260034094, Compound 367], the IC50 is < 20 µM.

Take `N=S(=O)(CC[C@H](N)C(=O)O)CCC(O)(c1ccc2ccccc2n1)C(F)(F)F` (some centres not stated) [US20260034094, Compound 373]: the IC50 was < 20 µM.

Take `N=S(=O)(CCC(c1ccc2[nH]nnc2c1)C(F)(F)F)CC[C@H](N)C(=O)O` (some centres not stated) [US20260034094, Compound 393]: the 50% inhibitory concentration (IC50) was < 20 µM.

On to `N=S(=O)(CCC(c1ccccc1O)C(F)(F)F)CC[C@H](N)C(=O)O` (some centres not stated) [US20260034094, Compound 397], for which the 50% inhibitory concentration (IC50) was < 20 µM.

For the molecule `N=S(=O)(CCC(c1ccc2[nH]cnc2c1)C(F)(F)F)CC[C@H](N)C(=O)O` (some centres not stated) [US20260034094, Compound 399], the concentration for half-maximal inhibition (IC50) was < 20 µM.

As for `N=S(=O)(CC[C@H](N)C(=O)O)CCC1(c2ccc(Oc3ccc(Cl)cc3Cl)cc2)CCC1` (some centres not stated) [US20260034094, Compound 403], the IC50 was < 20 µM.

With `N=S(=O)(CCC(N1CCN(c2ccc(Cl)cc2Cl)CC1)C(F)(F)F)CC[C@H](N)C(=O)O` (some centres not stated) [US20260034094, Compound 423], the IC50 was < 20 µM.

For `Cc1ccccc1-c1ccc(C(O)(CCS(=N)(=O)CC[C@H](N)C(=O)O)C(F)(F)F)cc1` (some centres not stated) [US20260034094, Compound 429], the IC50 is < 20 µM.

Turning to `Cc1cc(Cl)ccc1-c1ccc(C(O)(CCS(=N)(=O)CC[C@H](N)C(=O)O)C(F)(F)F)cc1` (some centres not stated) [US20260034094, Compound 430], the IC50 is < 20 µM.

Turning to `N=S(=O)(CC[C@H](N)C(=O)O)CCC(O)(c1ccc(-c2ccc(Cl)cc2)cc1)C(F)(F)F` (some centres not stated) [US20260034094, Compound 431], the half-inhibitory concentration (IC50) was < 20 µM.

As to `Cc1ccc(-c2ccc(C(O)(CCS(=N)(=O)CC[C@H](N)C(=O)O)C(F)(F)F)cc2)c(Cl)c1` (some centres not stated) [US20260034094, Compound 432], the IC50 was < 20 µM.

With `Cn1ncc(-c2ccc(C(O)(CCS(=N)(=O)CC[C@H](N)C(=O)O)C(F)(F)F)cc2)cc1=O` (some centres not stated) [US20260034094, Compound 433], the IC50 was < 20 µM.

For the molecule `N=S(=O)(CC[C@H](N)C(=O)O)CCC(O)(c1cccc(-c2ccccc2)c1)C(F)(F)F` (some centres not stated) [US20260034094, Compound 435], the IC50 is < 20 µM.

Turning to `Cc1ccc(-c2ccc(C(O)(CCS(=N)(=O)CC[C@H](N)C(=O)O)C(F)(F)F)cc2)c(F)c1` (some centres not stated) [US20260034094, Compound 437], the concentration for half-maximal inhibition (IC50) was < 20 µM.

As for `Cc1cc(C(O)(CCS(=N)(=O)CC[C@H](N)C(=O)O)C(F)(F)F)ccc1-c1ccc(Cl)cc1Cl` (some centres not stated) [US20260034094, Compound 443], the IC50 is < 20 µM.

As to `N=S(=O)(CC[C@H](N)C(=O)O)CCC(O)(c1ncc(-c2ccc(Cl)cc2Cl)cn1)C(F)(F)F` (some centres not stated) [US20260034094, Compound 462], the IC50 is < 20 µM.

On to `N=S(=O)(CC[C@H](N)C(=O)O)CCC(O)(c1ncc(-c2ccccc2)cn1)C(F)(F)F` (some centres not stated) [US20260034094, Compound 467], for which the IC50 is < 20 µM.

On to `N[C@@H](CCS(=O)(=O)CCC(O)(c1ncc(-c2ccc(Cl)cc2Cl)cn1)C(F)(F)F)C(=O)O` (some centres not stated) [US20260034094, Compound 470], for which the IC50 is < 20 µM.

`Cc1ccccc1-c1ccc(C(O)(CCS(=N)(=O)CC[C@H](N)C(=O)O)C(F)(F)F)nc1` (some centres not stated) [US20260034094, Compound 471]: the IC50 is < 20 µM.

Turning to `Cn1cc(-c2ccc(C(O)(CCS(=N)(=O)CC[C@H](N)C(=O)O)C(F)(F)F)nc2)cn1` (some centres not stated) [US20260034094, Compound 472], the 50% inhibitory concentration (IC50) is < 20 µM.

Turning to `Cc1cc(Cl)ccc1-c1cnc(C(O)(CCS(=N)(=O)CC[C@H](N)C(=O)O)C(F)(F)F)nc1` (some centres not stated) [US20260034094, Compound 474], the IC50 is < 20 µM.

For the molecule `N=S(=O)(CC[C@H](N)C(=O)O)CCC(O)(c1ccc(C2CCCCC2)cn1)C(F)(F)F` (some centres not stated) [US20260034094, Compound 476], the IC50 was < 20 µM.

Consider `N=S(=O)(CC[C@H](N)C(=O)O)CCC(O)(c1ccc(-c2ccco2)cn1)C(F)(F)F` (some centres not stated) [US20260034094, Compound 481], for which the concentration for half-maximal inhibition (IC50) is < 20 µM.

Usually IC50 stands for the midpoint of a concentration-inhibition curve. Lower therefore signals greater potency in that assay.
